Source: PubChem BioAssay AID256 (DTP/NCI, 2004)
Values joined by “and” are separate entries in the source; they are usually repeats but may differ in a detail not shown here. Equal entries are not always repeated. Inconclusive results and toxic doses are left out.

Test system: CD2F1 mice, L1210 leukemia ip, survival T/C
Assay: NCI In Vivo Anticancer Drug Screen. Data for tumor model L1210 Leukemia (intraperitoneal) in CD2F1 (CDF1) mice
Conditions: higher = longer survival
Method in brief: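 Tumor-bearing mice (transplanted tumor) were split into treated and vehicle control groups, and the measured endpoint of each treated group was divided by that of its vehicle controls.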

[1] = endpoint: mean survival time, dose: 100.0 mg/kg/injection, schedule: Q01DX009 (ip), vehicle: saline with Tween-80
[2] = endpoint: mean survival time, dose: 200.0 mg/kg/injection, schedule: Q01DX009 (ip), vehicle: saline with Tween-80
[3] = endpoint: mean survival time, dose: 400.0 mg/kg/injection, schedule: Q01DX009 (ip), vehicle: saline with Tween-80
[4] = endpoint: mean survival time, dose: 6.25 mg/kg/injection, schedule: Q04DX002 (ip), vehicle: saline with Tween-80
[5] = endpoint: mean survival time, dose: 12.5 mg/kg/injection, schedule: Q04DX002 (ip), vehicle: saline with Tween-80
[6] = endpoint: mean survival time, dose: 25.0 mg/kg/injection, schedule: Q04DX002 (ip), vehicle: saline with Tween-80
[7] = endpoint: mean survival time, dose: 100.0 mg/kg/injection, schedule: Q01DX001 (ip), vehicle: saline with Tween-80
[8] = endpoint: mean survival time, dose: 200.0 mg/kg/injection, schedule: Q01DX001 (ip), vehicle: saline with Tween-80
[9] = endpoint: mean survival time, dose: 400.0 mg/kg/injection, schedule: Q01DX001 (ip), vehicle: saline with Tween-80
[10] = endpoint: mean survival time, dose: 25.0 mg/kg/injection, schedule: Q01DX009 (ip), vehicle: saline with Tween-80
[11] = endpoint: mean survival time, dose: 100.0 mg/kg/injection, schedule: Q04DX003 (ip), vehicle: saline with Tween-80
[12] = endpoint: mean survival time, dose: 12.5 mg/kg/injection, schedule: Q01DX009 (ip), vehicle: saline with Tween-80
[13] = endpoint: mean survival time, dose: 200.0 mg/kg/injection, schedule: Q04DX003 (ip), vehicle: saline with Tween-80
[14] = endpoint: mean survival time, dose: 400.0 mg/kg/injection, schedule: Q04DX003 (ip), vehicle: saline with Tween-80
[15] = endpoint: mean survival time, dose: 50.0 mg/kg/injection, schedule: Q01DX009 (ip), vehicle: Klucel (hydroxypropylcellulose) (HPC)
[16] = endpoint: mean survival time, dose: 100.0 mg/kg/injection, schedule: Q01DX009 (ip), vehicle: Klucel (hydroxypropylcellulose) (HPC)
[17] = endpoint: mean survival time, dose: 200.0 mg/kg/injection, schedule: Q01DX009 (ip), vehicle: Klucel (hydroxypropylcellulose) (HPC)

In the case of `COCCOC`, the T/C (endpoint: mean survival time, dose: 200.0 mg/kg/injection, schedule: Q01DX Z (ip), vehicle: carboxymethylcellulose (CMC)) is reported as 103 % of control, the T/C (endpoint: mean survival time, dose: 300.0 mg/kg/injection, schedule: Q01DX Z (ip), vehicle: carboxymethylcellulose (CMC)) is reported as 110 % of control and the T/C (endpoint: mean survival time, dose: 450.0 mg/kg/injection, schedule: Q01DX Z (ip), vehicle: carboxymethylcellulose (CMC)) is reported as 114 % of control. The T/C (endpoint: mean survival time, dose: 675.0 mg/kg/injection, schedule: Q01DX Z (ip), vehicle: carboxymethylcellulose (CMC)) was 102 % of control.
`O=C(O)C1CCC(C(=O)O)CC1` (stereo not given) was tested, and the T/C [1] was 95 % of control, the T/C [2] was 91 % of control and the T/C [3] was 87 % of control.
In the case of `CC1(C)CCC23CCC4(C)C(CCC5C6(C)CCC(O)C(C)(C)C6CCC54C)C2C1OC3=O` (stereo not given), the T/C [4] is reported as 100 % of control, the T/C [5] is reported as 103 % of control and the T/C [6] is reported as 88 % of control and 103 % of control.
`[N-]=[N+]=c1c(=O)c2ccccc2c1=O` was tested, and the T/C [7] was 96 % of control, the T/C [8] was 94 % of control and the T/C [9] was 104 % of control.
In the case of `COC1CCC([NH-])(C[NH-])C(c2ccc3c(c2)OCO3)O1.[Cl][Pt+2][Cl]` (stereo not given), the T/C (endpoint: median survival time, dose: 8.25 mg/kg/injection, schedule: Q04DX003 (ip), vehicle: saline) is reported as 103 % of control, the T/C (endpoint: median survival time, dose: 17.5 mg/kg/injection, schedule: Q04DX003 (ip), vehicle: saline) is reported as 105 % of control and the T/C (endpoint: median survival time, dose: 35.0 mg/kg/injection, schedule: Q04DX003 (ip), vehicle: saline) is reported as 110 % of control. The T/C (endpoint: median survival time, dose: 70.0 mg/kg/injection, schedule: Q04DX003 (ip), vehicle: saline with Tween-80) was 108 % of control, the T/C (endpoint: median survival time, dose: 70.0 mg/kg/injection, schedule: Q04DX003 (ip), vehicle: saline) was 106 % of control and the T/C (endpoint: median survival time, dose: 140.0 mg/kg/injection, schedule: Q04DX003 (ip), vehicle: saline with Tween-80) was 113 % of control.
With `CCCCC(CC)CNCCOC(=O)c1ccc([N+](=O)[O-])cc1` (stereo not given) the T/C (endpoint: mean survival time, dose: 75.0 mg/kg/injection, schedule: Q01DX001 (ip), vehicle: saline) was 97 % of control, the T/C (endpoint: mean survival time, dose: 150.0 mg/kg/injection, schedule: Q01DX001 (ip), vehicle: saline) was 100 % of control and the T/C (endpoint: mean survival time, dose: 300.0 mg/kg/injection, schedule: Q01DX001 (ip), vehicle: saline) was 102 % of control.
`O=C(OCC1OC(n2nc(SCc3ccccc3)c(=O)[nH]c2=O)C(OC(=O)c2ccccc2)C1OC(=O)c1ccccc1)c1ccccc1` (stereo not given) was tested, and the T/C (endpoint: mean survival time, dose: 12.5 mg/kg/injection, schedule: Q01DX005 (ip), vehicle: distilled water + Tween-80) was 93 % of control, the T/C (endpoint: mean survival time, dose: 25.0 mg/kg/injection, schedule: Q01DX005 (ip), vehicle: distilled water + Tween-80) was 95 % of control and the T/C (endpoint: mean survival time, dose: 50.0 mg/kg/injection, schedule: Q01DX005 (ip), vehicle: distilled water + Tween-80) was 97 % of control. The T/C (endpoint: mean survival time, dose: 100.0 mg/kg/injection, schedule: Q01DX005 (ip), vehicle: distilled water + Tween-80) was 88 % of control.
For `COc1ccc2[nH]cc(CN(C)C)c2c1`, the T/C [10] was 100 % of control, the T/C (endpoint: mean survival time, dose: 33.0 mg/kg/injection, schedule: Q01DX009 (ip), vehicle: saline with Tween-80) was 101 % of control and the T/C (endpoint: mean survival time, dose: 50.0 mg/kg/injection, schedule: Q01DX009 (ip), vehicle: saline with Tween-80) was 106 % of control. The T/C [1] was 105 % of control and the T/C [11] was 88 % of control.
With `COC(=O)C1C2CCC(COC(C)=O)(O2)C1C(=O)O` (stereo not given) the T/C [7] was 94 % of control, the T/C (endpoint: mean survival time, dose: 100.0 mg/kg/injection, schedule: Q01DX009 (ip), vehicle: saline) was 96 % of control and the T/C [8] was 97 % of control. For the same compound, the T/C (endpoint: mean survival time, dose: 200.0 mg/kg/injection, schedule: Q01DX009 (ip), vehicle: saline) was 98 % of control and the T/C [9] was 88 % of control.
With `OCN(CO)c1nc(N(CO)CO)nc(N(CO)CO)n1` the T/C (endpoint: mean survival time, dose: 6.3 mg/kg/injection, schedule: Q01DX009 (ip), vehicle: saline with Tween-80) was 92 % of control, the T/C [12] was 96 % of control and the T/C [10] was 87 % of control.
In the case of `N#CSCc1ccc(O)c(C(=O)O)c1`, the T/C (endpoint: mean survival time, dose: 10.0 mg/kg/injection, schedule: Q01DX009 (ip), vehicle: saline with Tween-80) is reported as 94 % of control, the T/C (endpoint: mean survival time, dose: 20.0 mg/kg/injection, schedule: Q01DX009 (ip), vehicle: saline with Tween-80) is reported as 105 % of control and the T/C (endpoint: mean survival time, dose: 40.0 mg/kg/injection, schedule: Q01DX009 (ip), vehicle: saline with Tween-80) is reported as 106 % of control.
With `CC(=O)Nc1nc(/C=C\c2ccc([N+](=O)[O-])cc2)c(CCCCc2ccccc2)c(=O)[nH]1` the T/C (endpoint: mean survival time, dose: 3.13 mg/kg/injection, schedule: Q01DX001 (ip), vehicle: saline with Tween-80) was 98 % of control, the T/C (endpoint: mean survival time, dose: 6.25 mg/kg/injection, schedule: Q01DX001 (ip), vehicle: saline with Tween-80) was 96 % of control and the T/C (endpoint: mean survival time, dose: 12.5 mg/kg/injection, schedule: Q01DX001 (ip), vehicle: saline with Tween-80) was 98 % of control.
`O=C(O)CC(O)(CC(=O)O)C(=O)O` was tested, and the T/C (endpoint: mean survival time, dose: 60.0 mg/kg/injection, schedule: Q01DX001 (ip), vehicle: saline) was 106 % of control, the T/C (endpoint: mean survival time, dose: 200.0 mg/kg/injection, schedule: Q01DX001 (ip), vehicle: saline) was 96 % of control and the T/C (endpoint: mean survival time, dose: 400.0 mg/kg/injection, schedule: Q01DX001 (ip), vehicle: saline) was 94 % of control. The T/C (endpoint: mean survival time, dose: 800.0 mg/kg/injection, schedule: Q01DX001 (ip), vehicle: saline) was 100 % of control.
With `O=C(OC(=O)C(F)(F)C(F)(F)F)C(F)(F)C(F)(F)F` the T/C (endpoint: mean survival time, dose: 100.0 mg/kg/injection, schedule: Q04DX002 (ip), vehicle: saline) was 92 % of control, the T/C (endpoint: mean survival time, dose: 200.0 mg/kg/injection, schedule: Q04DX002 (ip), vehicle: saline) was 103 % of control and the T/C (endpoint: mean survival time, dose: 400.0 mg/kg/injection, schedule: Q04DX002 (ip), vehicle: saline) was 100 % of control.
For `N#CCC(=O)N/N=C/c1ccccc1`, the T/C [1] was 91 % of control and the T/C [2] was 86 % of control.
For `NC(CSC(c1ccccc1)(c1ccccc1)c1ccc(CBr)cc1)C(=O)O` (stereo not given), the T/C (endpoint: mean survival time, dose: 12.5 mg/kg/injection, schedule: Q01DX009 (ip), vehicle: other) was 107 % of control, the T/C (endpoint: mean survival time, dose: 25.0 mg/kg/injection, schedule: Q01DX009 (ip), vehicle: other) was 107 % of control and the T/C (endpoint: mean survival time, dose: 50.0 mg/kg/injection, schedule: Q01DX009 (ip), vehicle: other) was 109 % of control. For the same compound, the T/C (endpoint: mean survival time, dose: 100.0 mg/kg/injection, schedule: Q01DX009 (ip), vehicle: other) was 115 % of control and the T/C (endpoint: mean survival time, dose: 400.0 mg/kg/injection, schedule: Q01DX009 (ip), vehicle: other) was 164 % of control.
In the case of `Oc1ccc(/C=N/NC(=S)Nc2cccnc2)nc1`, the T/C (endpoint: mean survival time, dose: 100.0 mg/kg/injection, schedule: Q04DX002 (ip), vehicle: saline with Tween-80) is reported as 87 % of control, the T/C (endpoint: mean survival time, dose: 200.0 mg/kg/injection, schedule: Q04DX002 (ip), vehicle: saline with Tween-80) is reported as 87 % of control and the T/C (endpoint: mean survival time, dose: 400.0 mg/kg/injection, schedule: Q04DX002 (ip), vehicle: saline with Tween-80) is reported as 91 % of control.
`CC1(C)CCC(C)(C)c2c1ccc(O)c2Sc1c(O)ccc2c1C(C)(C)CCC2(C)C` was tested, and the T/C [1] was 97 % of control, the T/C [11] was 95 % of control and the T/C [2] was 89 % of control. For the same compound, the T/C [13] was 97 % of control, the T/C [3] was 95 % of control and the T/C [14] was 91 % of control.
With `O=C(CCCCCCCCC(=O)N/N=C\c1ccccc1O)N/N=C\c1ccccc1O` the T/C [12] was 97 % of control, the T/C [11] was 98 % of control and the T/C [13] was 93 % of control. The T/C [14] was 93 % of control.
`O=C(/C=C(/Nc1ccccc1)c1ccccc1)c1ccccc1` was tested, and the T/C [7] was 90 % of control, the T/C [8] was 92 % of control and the T/C [9] was 86 % of control.
For `CCOC(=O)c1c(C)nc(C)c(C(=O)OCC)c1-c1ccc(N(C)C)cc1`, the T/C [11] was 104 % of control and the T/C [13] was 98 % of control.
With `Cc1ccc([N+](=O)[O-])cc1NC(=O)Nc1ncccn1` the T/C [15] was 93 % of control, the T/C [16] was 96 % of control and the T/C [17] was 93 % of control.
For `Nc1ccn(C2OC(CO)C3[O][Sn]([c]4ccccc4)([c]4ccccc4)[O]C32)c(=O)n1` (stereo not given), the T/C (endpoint: mean survival time, dose: 1.56 mg/kg/injection, schedule: Q01DX005 (ip), vehicle: other) was 100 % of control, the T/C (endpoint: mean survival time, dose: 3.13 mg/kg/injection, schedule: Q01DX005 (ip), vehicle: other) was 94 % of control and the T/C (endpoint: mean survival time, dose: 6.25 mg/kg/injection, schedule: Q01DX005 (ip), vehicle: other) was 100 % of control. The T/C (endpoint: mean survival time, dose: 12.5 mg/kg/injection, schedule: Q01DX005 (ip), vehicle: other) was 94 % of control and 104 % of control.
With `O=C(OCC(OC(=O)c1ccccc1)C(OC(=O)c1ccccc1)C(COC(=O)c1ccccc1)OC(=O)c1ccccc1)c1ccccc1` (stereo not given) the T/C [15] was 97 % of control, the T/C [16] was 97 % of control and the T/C [17] was 86 % of control.
With `O=[N+]([O-])c1ccc(C[P+](c2ccccc2)(c2ccccc2)c2ccccc2)cc1` the T/C [4] was 86 % of control, the T/C [5] was 108 % of control and the T/C [6] was 94 % of control.
